# Laboratory results as given in ChEMBL document CHEMBL3997814, “Identification of novel inverse agonists of estrogen-related receptors ERRγ and ERRβ” (Bioorg Med Chem, 2017).
# The source made the active and inactive calls. The calls are words filed in the database; no cut-off is given here.
# Assays:
# [1] = biological target: T1, Steroid hormone receptor ERR1 (Homo sapiens) (UniProt P11474); test: Inverse agonist activity at GAL4-DNA binding domain-fused human ERRalpha ligand binding domain expressed in African green monkey CV1 cells assessed as decrease in receptor transcriptional activity at 10 uM after 45 hrs by luciferase reporter gene assay; format: cell-based
# T1 sequence (whole entry): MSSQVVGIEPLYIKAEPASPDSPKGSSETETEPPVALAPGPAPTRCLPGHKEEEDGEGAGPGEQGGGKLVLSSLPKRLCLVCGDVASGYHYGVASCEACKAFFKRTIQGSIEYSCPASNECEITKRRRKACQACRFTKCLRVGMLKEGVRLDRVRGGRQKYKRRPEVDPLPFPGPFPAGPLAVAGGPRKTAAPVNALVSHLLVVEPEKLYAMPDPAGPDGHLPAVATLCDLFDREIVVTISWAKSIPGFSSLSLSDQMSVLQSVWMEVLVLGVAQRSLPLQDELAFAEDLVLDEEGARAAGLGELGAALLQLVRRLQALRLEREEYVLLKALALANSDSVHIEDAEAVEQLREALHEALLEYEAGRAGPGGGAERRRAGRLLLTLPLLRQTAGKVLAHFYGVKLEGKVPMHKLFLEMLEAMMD
# [2] = biological target: T2, Estrogen receptor (Homo sapiens) (UniProt P03372); test: Antagonist activity at human ERalpha expressed in African green monkey CV1 cells assessed as decrease in receptor transcriptional activity after 45 hrs by luciferase reporter gene assay; format: cell-based
# T2 sequence (whole entry): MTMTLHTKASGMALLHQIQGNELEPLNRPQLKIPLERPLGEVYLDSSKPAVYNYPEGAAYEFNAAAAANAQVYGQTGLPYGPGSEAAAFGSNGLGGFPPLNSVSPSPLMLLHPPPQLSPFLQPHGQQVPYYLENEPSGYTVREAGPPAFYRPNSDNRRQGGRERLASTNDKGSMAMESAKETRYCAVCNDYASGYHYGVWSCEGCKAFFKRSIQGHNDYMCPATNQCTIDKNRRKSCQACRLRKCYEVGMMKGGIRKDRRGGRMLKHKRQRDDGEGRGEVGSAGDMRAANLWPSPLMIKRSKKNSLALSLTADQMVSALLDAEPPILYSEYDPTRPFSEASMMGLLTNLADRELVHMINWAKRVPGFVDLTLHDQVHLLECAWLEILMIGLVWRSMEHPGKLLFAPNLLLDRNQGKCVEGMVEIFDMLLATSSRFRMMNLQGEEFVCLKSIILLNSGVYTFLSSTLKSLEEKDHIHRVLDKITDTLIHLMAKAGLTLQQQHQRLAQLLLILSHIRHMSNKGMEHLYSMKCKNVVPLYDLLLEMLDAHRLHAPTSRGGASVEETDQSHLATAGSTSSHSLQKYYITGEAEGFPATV
# [3] = biological target: T2, Estrogen receptor (Homo sapiens); test: Inverse agonist activity at human ERalpha expressed in African green monkey CV1 cells assessed as decrease in receptor transcriptional activity up to 3 uM after 45 hrs by luciferase reporter gene assay; format: cell-based
# [4] = biological target: Estrogen receptor beta (Homo sapiens) (UniProt Q92731); test: Inverse agonist activity at human ERbeta expressed in African green monkey CV1 cells assessed as decrease in receptor transcriptional activity up to 3 uM after 45 hrs by luciferase reporter gene assay; format: cell-based
# Sequence of Estrogen receptor beta (Homo sapiens) (Q92731 whole entry): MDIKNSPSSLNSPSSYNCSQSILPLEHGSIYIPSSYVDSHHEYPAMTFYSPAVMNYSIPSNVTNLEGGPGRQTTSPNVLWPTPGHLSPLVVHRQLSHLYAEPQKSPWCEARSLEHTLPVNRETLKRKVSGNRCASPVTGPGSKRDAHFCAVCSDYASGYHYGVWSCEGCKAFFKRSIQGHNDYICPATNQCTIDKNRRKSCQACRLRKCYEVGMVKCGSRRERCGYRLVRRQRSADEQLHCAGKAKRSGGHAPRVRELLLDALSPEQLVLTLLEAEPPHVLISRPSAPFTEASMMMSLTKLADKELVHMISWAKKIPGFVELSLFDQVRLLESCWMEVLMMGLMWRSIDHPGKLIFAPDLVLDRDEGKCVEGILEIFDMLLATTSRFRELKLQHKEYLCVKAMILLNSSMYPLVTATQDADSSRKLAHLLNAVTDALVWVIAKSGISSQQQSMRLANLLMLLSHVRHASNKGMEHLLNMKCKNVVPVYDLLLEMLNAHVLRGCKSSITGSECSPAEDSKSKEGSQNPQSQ
# [5] = biological target: T3, Estrogen-related receptor gamma (Mus musculus, UniProt P62509)
# T3 sequence (P62509 whole entry): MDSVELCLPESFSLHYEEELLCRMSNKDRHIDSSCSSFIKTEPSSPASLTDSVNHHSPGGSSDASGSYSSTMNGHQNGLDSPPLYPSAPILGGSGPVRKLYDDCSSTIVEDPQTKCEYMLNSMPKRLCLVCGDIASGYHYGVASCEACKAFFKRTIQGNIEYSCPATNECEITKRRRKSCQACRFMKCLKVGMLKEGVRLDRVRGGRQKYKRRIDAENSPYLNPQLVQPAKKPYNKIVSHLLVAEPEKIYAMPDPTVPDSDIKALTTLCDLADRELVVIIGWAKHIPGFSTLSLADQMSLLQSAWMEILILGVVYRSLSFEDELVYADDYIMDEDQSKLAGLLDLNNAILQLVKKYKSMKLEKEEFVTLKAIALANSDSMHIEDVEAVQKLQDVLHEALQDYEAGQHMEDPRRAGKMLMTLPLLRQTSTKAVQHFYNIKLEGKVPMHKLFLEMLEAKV
# Description: Inverse agonist activity at GAL4-DNA binding domain-fused mouse ERRgamma ligand binding domain expressed in African green monkey CV1 cells assessed as decrease in receptor transcriptional activity after 45 hrs by luciferase reporter gene assay
# [6] = biological target: T1, Steroid hormone receptor ERR1 (Homo sapiens); test: Inverse agonist activity at GAL4-DNA binding domain-fused human ERRalpha ligand binding domain expressed in African green monkey CV1 cells assessed as decrease in receptor transcriptional activity after 45 hrs by luciferase reporter gene assay; format: cell-based
SMILES,Activity [1],further results
CC(=O)Oc1ccc(/C(=C(/c2ccccc2)C(C)C)c2ccc(OCCN(C)C)cc2)cc1,inactive,inhibition [2]: Active
COC(=O)CC/C(=C(\c1ccc(O)cc1)c1ccc(OCCN(C)C)cc1)c1ccccc1,inactive,Activity [3]: inactive; Activity [4]: inactive
COC(=O)C(C)C/C(=C(\c1ccc(O)cc1)c1ccc(OCCN(C)C)cc1)c1ccccc1 (stereo not given),inactive,Activity [3]: inactive; Activity [4]: inactive
CC(C)/C(=C(\c1ccc(O)cc1)c1ccc(OCCN(C)C)cc1)c1ccccc1,inactive,–
CC(C)C/C(=C(\c1ccc(O)cc1)c1ccc(OCCN(C)C)cc1)c1ccccc1,inactive,IC50 [5]: 1000 nM
CC/C(=C(/c1ccc(O)cc1)c1ccc(OCCN(C)C)cc1)c1ccccc1,–,Activity [6]: inactive
CN(C)CCOc1ccc(/C(=C(/CCCO)c2ccccc2)c2ccc(O)cc2)cc1,inactive,–
COC(=O)C(C)CC(=C(c1ccc(O)cc1)c1ccc(O)cc1)c1ccccc1 (stereo not given),inactive,–
CC(=O)Oc1ccc(/C(=C(\CC(C)CO)c2ccccc2)c2ccc(OCCN(C)C)cc2)cc1 (stereo not given),inactive,–
CC/C(=C(\c1ccc(O)cc1)c1ccc(OCCN(C)C)cc1)c1ccccc1,inactive,–
CC(=O)Oc1ccc(/C(=C(\CCCO)c2ccccc2)c2ccc(OCCN(C)C)cc2)cc1,inactive,IC50 [5]: 300 nM
CC(CO)C/C(=C(\c1ccc(O)cc1)c1ccc(OCCN(C)C)cc1)c1ccccc1 (stereo not given),inactive,–
COC(=O)CCC(=C(c1ccc(O)cc1)c1ccc(O)cc1)c1ccccc1,inactive,–
